Reference: patent US20070270475A1, “4-Methoxy-Pyrrolidine-2-Carboxylic Acid Compounds and Derivatives Thereof as Hepatitis C Virus Inhibitors” (priority 2004, published 2007)

System: 11-7 cell line (NS2-5B) HCV replicon
Test: Replicon ELISA cell based assay, genotype 1b, 11-7 cell line (NS2-5B)
Parameters: species or system HCV genotype 1b
Details: Hepatitis C virus; 11-7 cell line (NS2-5B) used instead of the 5-15 cell line
Experimental: Replicon ELISA Cell Based Assay
100 μL of medium containing 10% FCS were added to each well of clear, flat-bottomed 96 well microplates, excepting wells in the top row. Test compound was diluted in assay medium to twice the final required starting concentration from a 40 mM stock solution in DMSO. 200 μL of the starting dilution were introduced into two wells each in the top row and doubling dilutions made down the plate by the sequential transfer of 100 μL aliquots with thorough mixing in the wells; the final 100 μL were discarded. The two bottom rows were not used for compound dilutions. […]
Following incubation, the assay medium was aspirated from the plates. […] The reaction was stopped by the addition of 25 μL per well of 2 M sulphuric acid and the plates were read at 490 nm on a Fluostar Optima spectrophotometer. […]
The absorbance values from all compound-free wells that had received both primary and secondary antibodies were averaged to obtain a positive control value. The mean absorbance value from the compound-free wells that had not received the primary antibody was used to provide the negative (background) control value. The readings from the duplicate wells at each compound concentration were averaged and, after the subtraction of the mean background from all values, were expressed as a percentage of the positive control signal. […]

COC[C@H]1C[C@@](CC(C)C)(C(=O)O)N(C(=O)c2ccc(C(C)(C)C)c(OC)c2)[C@H]1c1ncc(C)s1 (racemic) [Compound C, rel-(2S,4S,5R)-2-isobutyl-1-(3-methoxy-4-tert-butylbenzoyl)-4-methoxymethyl-5-(5-methyl-1,3-thiazol-2-yl)pyrrolidine-2-carboxylic acid, reference compound]
IC50: 0.15 to 10 µM
